# Test results: PubChem BioAssay (NCI)
#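 GI50: concentration for 50% inhibition of growth. TGI: total growth inhibition.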
# Tests used:
# Assay in all cases: inhibition of tumour cell growth, NCI panel, 384-well format
# [1] = system: SR leukemia
# [2] = system: HOP-92 NSCLC
# [3] = system: COLO 205 colon
# [4] = system: UO-31 renal
# [5] = system: A549 NSCLC
# [6] = system: A498 renal
# [7] = system: MOLT-4 leukemia
# [8] = system: NCI-H522 lung
# [9] = system: TK-10 renal
# [10] = system: MCF7 breast
# [11] = system: NCI/ADR-RES ovarian
# [12] = system: K-562 leukemia
# [13] = system: SN12C renal
# [14] = system: M14 melanoma
# [15] = system: SK-MEL-5 melanoma
# [16] = system: OVCAR-4 ovarian
# [17] = system: ACHN renal
# [18] = system: MDA-MB-468 breast
# [19] = system: NCI-H226 lung
# [20] = system: SK-MEL-2 melanoma
# [21] = system: RPMI-8226 leukemia
# [22] = system: OVCAR-8 ovarian
# [23] = system: HL-60(TB) leukemia
# [24] = system: HOP-62 NSCLC
# [25] = system: MDA-MB-435 melanoma
# [26] = system: UACC-62 melanoma
# [27] = system: PC-3 prostate
# [28] = system: HCT-116 colon
# [29] = system: CCRF-CEM leukemia
# [30] = system: HCT-15 colon
# [31] = system: RXF 393 renal
# [32] = system: 786-0 renal
smiles,measurement,setting,value
Cc1sc(C(=O)c2cncnc2N[C@@H]2C[C@H](COS(N)(=O)=O)[C@@H](O)C2)cc1[C@@H]1NCCc2ccc(Cl)cc21,GI50,[1],< 10 nM
same,GI50,[2],18.8 nM
same,TGI,[2],10100 nM
same,GI50,[3],13.2 nM
same,TGI,[3],75.6 nM
same,GI50,[4],10600 nM
same,TGI,[4],22600 nM
same,GI50,[5],74.4 nM
same,TGI,[5],17200 nM
same,GI50,[6],561 nM
same,TGI,[6],18700 nM
same,GI50,[7],< 10 nM
same,TGI,[7],18.6 nM
same,GI50,[8],< 10 nM
same,TGI,[8],15.1 nM
same,GI50,[9],14500 nM
same,TGI,[9],27700 nM
same,GI50,[10],< 10 nM
same,TGI,[10],15300 nM
same,GI50,[11],32700 nM
same,TGI,[11],> 100000 nM
same,GI50,[12],54.8 nM
same,TGI,[12],13100 nM
same,GI50,[13],133 nM
same,TGI,[13],21400 nM
same,GI50,[14],32.2 nM
same,TGI,[14],214 nM
same,GI50,[15],56.5 nM
same,TGI,[15],239 nM
same,GI50,[16],29 nM
same,TGI,[16],81 nM
same,GI50,[17],12500 nM
same,TGI,[17],25300 nM
same,GI50,[18],< 10 nM
same,TGI,[18],17.2 nM
same,GI50,[19],160 nM
same,TGI,[19],16300 nM
same,GI50,[20],< 10 nM
same,TGI,[20],12.3 nM
same,GI50,[21],< 10 nM
same,GI50,[22],186 nM
same,TGI,[22],17500 nM
same,GI50,[23],11.1 nM
same,TGI,[23],23.3 nM
same,GI50,[24],321 nM
same,TGI,[24],19300 nM
same,GI50,[25],< 10 nM
same,TGI,[25],18.3 nM
same,GI50,[26],19.8 nM
same,TGI,[26],17700 nM
same,GI50,[27],35.2 nM
same,TGI,[27],19200 nM
same,GI50,[28],28.2 nM
same,TGI,[28],17400 nM
same,GI50,[29],< 10 nM
same,TGI,[29],14.8 nM
same,GI50,[30],2500 nM
same,TGI,[30],14200 nM
same,GI50,[31],10.4 nM
same,TGI,[31],57.8 nM
same,GI50,[32],453 nM
same,TGI,[32],20500 nM
